The values below come from patent US20150272952A1, “Combination” (GLAXOSMITHKLINE LLC, priority 2012, published 2015).

Read-outs that look alike come from different tables or passages of the source. Some results are limits rather than exact numbers.

One assay concerns HCC1419. Kind of assay: Cell growth inhibition assay (Cell Titer Glo), HCC1419. Conditions: Homo sapiens. The assay is classed as cell-based. Here is the method:
(§1) Human tumor cell lines from breast, BT474, BT474-J4, JIMT-1, MDA-MB-361, SK-BR-3, HCC1419, UACC893 and HCC202 in RPMI 1640 containing 10% FBS media; SK-BR-3-W13 and BT474-J4 in RPMI 1640 containing 10% FBS and 1 μM Compound A (in this assay, Compound A, was used in the form of the ditosylate monohydrate salt) media were kept in a humidified incubator at 37° C. in 95% air and 5% CO2 JIMT-1 is a line derived from a patient clinically resistant to trastuzumab (Herceptin®). SK-BR-3-W13 is a single cell clone isolated by a cloning cylinder after a single treatment of SK-BR-3 cells with 0.5 μM Compound A. BT474-J4 is a single cell clone derived from BT474 cells that were selected to grow in Compound A to a concentration of 3 μM.
(§2) All cells were cultured without Compound A for a minimum of 72 hours prior to cell plating. Cells were assayed in a 96-well tissue culture plate (NUNC 136102) of RPMI containing 10% FBS at 2,000 cells/well. Approximately 24 hours after plating, cells were exposed to ten, two-fold or three-fold serial dilutions of Compound A or the combination of the two agents at a constant molar to molar ratio of 10:1 Compound A to Compound B (in this assay, Compound B refers to N-{(1S)-2-amino-1-[(3,4-difluorophenyl)methyl]ethyl}-5-chloro-4-(4-chloro-1-methyl-1H-pyrazol-5-yl)-2-furancarboxamide and was used as the free or unsalted compound) in RPMI media containing 10% FBS. Cells were incubated in the presence of compounds for 3 days. ATP levels were determined by adding Cell Titer Glo® (Promega) according to the manufacturer's protocol. Briefly, Cell Titer Glo® was added each plate, incubated for 20 minutes then luminescent signal was read on the SpectraMax L plate reader with a 0.5 sec integration time.
(§3) Inhibition of cell growth was estimated after treatment with Compound A or the combination of Compound A and Compound B for three days and comparing the signal to cells treated with vehicle (DMSO). Cell growth was calculated relative to vehicle (DMSO) treated control wells. Concentration of compound that inhibits 50% of control cell growth (IC50) was interpolated using nonlinear regression with the equation, y=(A+(B−A)/(1+(C/x)̂D)))), where A is the minimum response (ymin), B is the maximum response (ymax), C is the inflection point of the curve (EC50) and D is the Hill coefficient. […]
(§4) In general, a CI value <0.9, between 0.9 and 1.1, or >1.1 indicates synergy, additivity and antagonism, respectively. In general, the smaller the CI number, the greater is the strength of synergy. […]

For another assay, the system named is BT474. Kind of assay: Cell growth inhibition assay (Cell Titer Glo), BT474. The assay is classed as cell-based. The note with it: Homo sapiens. How it is done:
as §1, §2, §3, §4
In general terms: ATP-based viability assays read luminescence as a measure of living cells.

Another assay relates to SK-BR-3. Put plainly: Cell growth inhibition assay (Cell Titer Glo), SK-BR-3. The assay is classed as cell-based. The note with it: Homo sapiens. Here is the method:
as §1, §2, §3, §4

For a further assay, the system named is UACC893. Kind of assay: Cell growth inhibition assay (Cell Titer Glo), UACC893. Conditions: for IC50: Homo sapiens, UACC-893, 72 h, UACC893, PIK3CA H1047R, 3 days, single agent; for sensitivity of the line to single agent: UACC893, H1047R PIK3CA mutation. The assay is classed as cell-based, Human. How it is done:
as §1, §2, §3, §4

The subject of the next assay is KPL4. Kind of assay: Cell growth inhibition assay (Cell Titer Glo), KPL4. The note with it: for IC50: Homo sapiens, 72 h, KPL4, PIK3CA H1047R, 3 days, single agent; for sensitivity of the line to single agent: KPL-4, H1047R PIK3CA mutation. The assay is classed as cell-based, Human.
The subject of another assay is MDA-MB-361. Kind of assay: Cell growth inhibition assay (Cell Titer Glo), MDA-MB-361. The assay is classed as cell-based, Human. Conditions: for IC50: Homo sapiens, 72 h, MDA-MB-361, PIK3CA E545K, 3 days, single agent; for sensitivity of the line to single agent: MDA-MB-361, E545K PIK3CA mutation. Here is the method:
as §1, §2, §3, §4

For a further assay, the system named is HCC202. Put plainly: Cell growth inhibition assay (Cell Titer Glo), HCC202. The note with it: for sensitivity of the line to single agent: HCC202, E545K PIK3CA mutation; for IC50: Homo sapiens, 72 h, HCC202, PIK3CA E545K, 3 days, single agent. The assay is classed as cell-based, Human. How it is done: as §1, §2, §3, §4
The next assay deals with BT474-J4. Kind of assay: Cell growth inhibition assay (Cell Titer Glo), BT474-J4. The assay is classed as cell-based, Human. The note with it: for IC50: Homo sapiens, 72 h, BT474-J4 (resistant to Compound A and trastuzumab), PIK3CA K111N, 3 days, single agent. How it is done:
as §1, §2
Inhibition of cell growth was estimated after treatment with Compound A or the combination of Compound A and Compound B for three days and comparing the signal to cells treated with vehicle (DMSO). Cell growth was calculated relative to vehicle (DMSO) treated control wells. […]

In another assay the test system is SK-BR3-W13. Put plainly: Cell growth inhibition assay (Cell Titer Glo), SK-BR3-W13. In kind it is cell-based. Conditions: Homo sapiens. Here is the method: as §1, §2, §3, §4
A further assay deals with JIMT1. Kind of assay: Cell growth inhibition assay (Cell Titer Glo), JIMT1. In kind it is cell-based. The note with it: Homo sapiens. How it is done:
as §1, §2, §3, §4

[1] abbreviates: 72 h, HCC1419, PIK3CA WT, 3 days, single agent, read-out: Single agent (IC50, μm).
Setting [2] is: HCC1419, single agent, bound stated, read-out: IC50.
Where [3] appears, read: BT-474, 72 h, BT474, PIK3CA K111N, 3 days, single agent, read-out: Single agent (IC50, μm).
[4] abbreviates: BT-474, BT474, single agent, bound stated, read-out: IC50.
Setting [5] is: 72 h, SK-BR-3, PIK3CA WT, 3 days, single agent, read-out: Single agent (IC50, μm).
Setting [6] is: SK-BR-3, single agent, bound stated, read-out: IC50.
The mark [7] stands for this setting: 72 h, SK-BR3-W13 (resistant to Compound A and trastuzumab), 3 days, single agent, read-out: Single agent (IC50, μm).
The mark [8] stands for this setting: SK-BR-3-W13, single agent, bound stated, read-out: IC50.
The mark [9] stands for this setting: JIMT-1, 72 h, JIMT1 (resistant to Compound A and trastuzumab), PIK3CA C420R, 3 days, single agent, read-out: Single agent (IC50, μm).
The mark [10] stands for this setting: JIMT-1, JIMT1, single agent, bound stated, read-out: IC50.

Broadly, the IC50 is the concentration that gives 50% inhibition. As to `CS(=O)(=O)CCNCc1ccc(-c2ccc3ncnc(Nc4ccc(OCc5cccc(F)c5)c(Cl)c4)c3c2)o1` [Compound A, N-{3-Chloro-4-[(3-fluorobenzyl)oxy]phenyl}-6-[5-({[2-(methanesulphonyl)ethyl]amino}methyl)-2-furyl]-4-quinazolinamine, reference compound], the IC50 in the assay with HCC1419 (setting [1]) was 84 ± 34 nM; in the assay with HCC1419 (setting [2]), less than 200 nM; with BT474 (setting [3]), 171 ± 34 nM; in the assay on BT474 (setting [4]), less than 200 nM; in the assay with SK-BR-3 (setting [5]), 196 ± 70 nM; in the assay with SK-BR-3 (setting [6]) it was less than 200 nM. For the same compound, the IC50 in the assay on UACC893 is 492 ± 498 nM; in the assay on KPL4, 430 ± 159 nM; in the assay on MDA-MB-361 it was more than 10000 nM; in the assay on HCC202, 2408 ± 22 nM; in the assay on BT474-J4 it was 5180 ± 2200 nM; in the assay with SK-BR3-W13 (setting [7]) it was 5600 ± 1050 nM. In addition, the results for the IC50 in the assay on SK-BR3-W13 (setting [8]), in the assay with JIMT1 (setting [9]) and with JIMT1 (setting [10]) were more than 5000 nM, 7780 ± 1270 nM and more than 5000 nM, respectively. Also, the “sensitivity of the line to single agent” value in the assay on UACC893 is “sensitive”; in the assay on KPL4, “sensitive”; in the assay with MDA-MB-361, “less sensitive”; in the assay on HCC202, “less sensitive”.

Take `Cn1ncc(Cl)c1-c1cc(C(=O)N[C@H](CN)Cc2ccc(F)c(F)c2)oc1Cl` [Compound B, N-{(1S)-2-amino-1-[(3,4-difluorophenyl)methyl]ethyl}-5-chloro-4-(4-chloro-1-methyl-1H-pyrazol-5-yl)-2-furancarboxamide]: the IC50 in the assay on HCC1419 (setting [1]) was 573 ± 154 nM; in the assay with HCC1419 (setting [2]), more than 500 nM; in the assay on BT474 (setting [3]) it was more than 1000 nM; in the assay on BT474 (setting [4]), more than 500 nM; in the assay on SK-BR-3 (setting [5]), more than 1000 nM; with SK-BR-3 (setting [6]) it was more than 500 nM. Further, the IC50 with UACC893 is 30 ± 27 nM; in the assay on KPL4, 19 ± 4 nM; in the assay with MDA-MB-361 it was 151 ± 22 nM; with HCC202, 919 ± 356 nM; in the assay on BT474-J4, 142 ± 47 nM; in the assay on SK-BR3-W13 (setting [7]) it was more than 1000 nM. Further, the IC50 with SK-BR3-W13 (setting [8]), in the assay on JIMT1 (setting [9]) and with JIMT1 (setting [10]) was more than 1000 nM throughout. Also, the “sensitivity of the line to single agent” value in the assay on UACC893 was “sensitive”; in the assay on KPL4 it was “sensitive”; in the assay on MDA-MB-361, “less sensitive”; with HCC202, “less sensitive”. In addition, the “sensitivity of the line to cell growth inhibition” value with BT474-J4 (BT474-J4, single agent) is recorded as “sensitive”.
